Literature values as cited in US7129073B2, “Regulation of neuronal function through metabotropic glutamate receptor signaling pathways” (The Rockefeller University, priority 2001, dated 2006).

Target: T1, T-cell protein-tyrosine phosphatase (TC PTP) (Homo sapiens, UniProt P17706)
T1 sequence (P17706 1-415): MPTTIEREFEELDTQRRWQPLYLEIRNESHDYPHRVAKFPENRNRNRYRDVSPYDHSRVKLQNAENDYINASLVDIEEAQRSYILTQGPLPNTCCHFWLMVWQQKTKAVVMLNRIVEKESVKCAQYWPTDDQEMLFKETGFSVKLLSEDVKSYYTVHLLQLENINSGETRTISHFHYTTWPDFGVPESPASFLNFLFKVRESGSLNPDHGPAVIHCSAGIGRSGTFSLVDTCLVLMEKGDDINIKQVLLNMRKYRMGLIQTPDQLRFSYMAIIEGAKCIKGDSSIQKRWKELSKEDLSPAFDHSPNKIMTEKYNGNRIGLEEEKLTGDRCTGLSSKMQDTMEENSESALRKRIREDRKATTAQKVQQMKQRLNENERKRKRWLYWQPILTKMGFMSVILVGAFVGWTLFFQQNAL
Details: cited from earlier work

## [Na+].[Na+].[Na+].[O]=[V]([O-])([O-])[O-] [Na3VO4]
50 μM Na3VO4
  effect on TC PTP-dependent change in polarization: inhibited
FP-based direct binding assay
  IC50: 4 nM
